The values that follow come from ChEMBL document CHEMBL4673247, “Mycophenolic anilides as broad specificity inosine-5'-monophosphate dehydrogenase (IMPDH) inhibitors” (Bioorg Med Chem Lett, 2020).

The target in assay [1] is Inosine-5'-monophosphate dehydrogenase 2 (Homo sapiens, UniProt P12268). The assay is described as follows: Inhibition of human IMPDH2 expressed in Escherichia coli assessed as apparent inhibition constant using NAD as substrate by fluorescence assay. Conditions: read-out: Ki(app).
Assay [2] addresses T1, Inosine-5'-monophosphate dehydrogenase (Cryptosporidium parvum, UniProt Q8T6T2).
T1 sequence (Q8T6T2 whole entry): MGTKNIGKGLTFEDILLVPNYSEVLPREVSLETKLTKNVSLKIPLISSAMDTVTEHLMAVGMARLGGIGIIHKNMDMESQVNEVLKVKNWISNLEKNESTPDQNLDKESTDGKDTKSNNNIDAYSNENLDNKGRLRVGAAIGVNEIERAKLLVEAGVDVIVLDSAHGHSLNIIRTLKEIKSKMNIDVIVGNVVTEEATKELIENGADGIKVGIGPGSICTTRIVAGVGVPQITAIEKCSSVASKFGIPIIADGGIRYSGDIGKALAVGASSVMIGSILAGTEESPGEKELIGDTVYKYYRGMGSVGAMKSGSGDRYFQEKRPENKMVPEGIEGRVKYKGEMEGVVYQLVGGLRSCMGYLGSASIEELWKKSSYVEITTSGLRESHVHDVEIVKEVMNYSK
As to the kind of experiment: Inhibition of Cryptosporidium parvum IMPDH expressed in Escherichia coli assessed as apparent inhibition constant using NAD as substrate by fluorescence assay. Conditions: read-out: Ki(app).

In the case of `COc1c(C)c2c(c(O)c1C/C=C(\C)CCC(=O)Nc1ccc(C(F)(F)F)cc1)C(=O)OC2`, in assay [1], the Ki came out at 0.4 µM.

As for `COc1c(C)c2c(c(O)c1C/C=C(\C)CCC(=O)Nc1ccc(C#N)cc1)C(=O)OC2`, the Ki was determined as 0.11 µM in assay [2] and 0.35 µM in assay [1].

For `COc1c(C)c2c(c(O)c1C/C=C(\C)CCC(=O)Nc1ccc(F)cc1)C(=O)OC2`, the Ki in assay [1] was 0.27 µM.

Consider `COc1c(C)c2c(c(OC)c1C/C=C(\C)CCC(=O)Nc1ccc(Cl)c(C(F)(F)F)c1)C(=O)OC2`, for which the Ki in assay [2] was 1.7 µM.

Regarding `COc1c(C)c2c(c(O)c1C/C=C(\C)CCC(=O)N(C)c1ccc(Cl)cc1)C(=O)OC2`, the Ki in assay [2] turned out to be 0.87 µM.

Consider `COc1cc(NC(=O)CC/C(C)=C/Cc2c(O)c3c(c(C)c2OC)COC3=O)ccc1Cl`, for which the Ki is 0.046 µM in assay [2] and 0.35 µM in assay [1].

With `COc1c(C)c2c(c(O)c1C/C=C(\C)CCC(=O)Nc1ccc(Cl)cc1)C(=O)OC2`, the Ki in assay [2] stood at 0.042 µM; in assay [1], 0.13 µM.

`COc1c(C)c2c(c(O)c1C/C=C(\C)CCC(=O)Nc1ccc(Cl)c(Cl)c1)C(=O)OC2`: the Ki in assay [2] worked out at 0.041 µM; in assay [1], 0.34 µM.

Consider `COc1c(C)c2c(c(O)c1C/C=C(\C)CCC(=O)Nc1ccc(Cl)c(C(F)(F)F)c1)C(=O)OC2`, for which the Ki in assay [2] stood at 0.016 µM; in assay [1] it was 0.23 µM.

As for `COc1c(C)c2c(c(O)c1CCC(C)CCC(=O)Nc1ccc(Cl)c(C(F)(F)F)c1)C(=O)OC2` (stereo not given), the Ki in assay [2] was found to be 0.06 µM.
